# Data from patent publication US8604070B2, “Use of inhibitors of the renin-angiotensin system” (FinVector Vision Therapies, Ltd., priority 1997, dated 2013).
# “Also recorded” adds a separate entry of the source.
# Columns and labels:
# [1] = rat hind limb; cited from earlier work
# [2] = Military recruits, 12 weeks training, randomised Losartan or placebo; type: in vivo, human; conditions: after 12 weeks training
# From the text: Ninety military recruits were studied before and after military training of 12 weeks duration. These were randomised to receive the AT1-receptor antagonist Losartan or placebo.
# [3] = Cachectic CHF patients treated with Losartan: clinical status, body composition, strength, treadmill; type: in vivo, human
# Description: Patient 1 had cachexia due to chronic heart failure (CHF) (person, weight 50.0 kg, height 178 cm, previous weight loss 15.3 kg in 3 years=chronic weight loss). Patient 2 had CHF and a muscle myopathy suffering from idiopathic cachexia (person, weight 62 kg, height 180 cm, previous weight loss 11 kg in year=recent weight loss). Each was treated with Losartan (50 mg once daily). Clinical status and parameters of body composition, strength and treadmill exercise capacity were studies, at baseline and during follow-up. Both patients had evidence of CHF with impaired exercise capacity and impaired left ventricular function (LVEF<40%).
# Bioelectrical impedance analysis (patient 1 and 2) was performed in the erect position using a body fat analyser (TANITA TBF-305, Tanita Corporation, Illinois, USA). Lean and fat mass were automatically analysed based on equations supplied and programmed into the machine by the manufacturer. These equations are based upon a comparison with measurements in a health population.
# Dual energy X-ray absorptiometry (DEXA) (patient 1): Whole body DEXA-scans were performed using a Lunar model DPXIQ total body scanner (Lunar Radiation Company, Madison, Wisc., USA, Lunar system software version 4.3c). The subject was at each time point scanned rectilinearly from head to toe. A scan takes less than 20 min. The mean radiation dose per scan is reported to be about 0.75 μSv (53), about 1/50th of a normal chest X-ray. The DEXA method can be used to obtain from body density analyses values of fat tissue mass, lean tissue mass. The technical details of DEXA, performance and segment demarcation have been described (54,55). The error of lean tissue measurements is […] and of fat tissue measurements <5% (56).
# Treadmill exercise test (Patients 1 and 2): The patients underwent symptom limited treadmill exercise testing. A standard Bruce protocol with the addition of a “stage 0” consisting of 3 min at a speed of 1 mile per hour with a 5% gradient was used. The patients breathed through a one-way valve connected to a respiratory mass spectrometer (Amis 2000, Odense, Denmark) and minute ventilation, oxygen consumption and carbon dioxide production were calculated on line every 10 seconds using a standard inert gas dilution technique. Patients were encouraged to exercise to exhaustion. Exercise time and oxygen consumption at peak exercise adjusted for total body weight (peak V02 in ml/kg/min) were measured as an index of the exercise capacity.
# Assessment of quadriceps muscle strength (Patients 1 and 2): The subjects were seated in a rigid frame, with the legs hanging freely. An inelastic strap attached the ankle to a pressure transducer. The recording (Multitrace 2, §, Jersey, Channel Islands) from the pressure transducer was used to assess strength and to provide visual feedback to the subject. […] The best of three voluntary contractions on each leg, with a rest period of at least one minute in-between, was taken to represent the maximal voluntary quadriceps muscle strength of the right and left leg, respectively.
# [4] = human skeletal muscle; cited from earlier work
# [5] = 5 μg/kg/day, rats; cited from earlier work
# [6] = low dose, humans; cited from earlier work
# [7] = 2.5 mg; cited from earlier work
# renin gene expression = conditions: captopril administration; cited from earlier work
# rat cardiomyocytes [8] = experiment: Mitochondrial membrane potential (ΔΨm) by Rh123 flow cytometry; type: cell-based; conditions: 1 μM, pre-treatment for 36 hours
# From the text: (§1) It is based on observation of the potential difference (ΔΨm) across the inner mitochondrial membrane that is generated by the extrusion of protons to the outside of the mitochondrion during the transport of electrons from electron-carrying coenzymes to molecular oxygen. Part of the energy stored in ΔΨm is utilised to support the synthesis of most of the ATP derived from aerobic metabolism. Thus, ΔΨm is an indicator of the energisation state of the mitochondrion, and also of the efficiency of oxygen utilisation to generate chemical energy. To investigate whether some of the therapeutic properties of ACE inhibitors could be accounted for by an increase in ΔΨm, this parameter was examined in rat cardiomyocytes, following pre-treatment with the ACE inhibitor lisinopril.
# More particularly, cardiomyocytes were isolated from new-born Sprague-Dawley rats hearts and maintained in 30 mm tissue culture dishes in the presence of DMEM supplemented with 1% foetal calf serum at 37° C. in a humidified 5% CO2 atmosphere. […]
# To measure ΔΨm, the mitochondrial-specific probes rhodamine 123 (Rh123) and 5,5′,6,6′-tetrachloro-1,1′,3,3′-tetraethylbenzimidazolocarbocyanine iodide (JC-1) were used. […] Data were acquired and analysed using Lysis II software (Becton Dickinson).
# rat cardiomyocytes [9] = experiment: Mitochondrial membrane potential (ΔΨm) by JC-1 flow cytometry; type: cell-based; conditions: 1 μM
# From the text: as §1
# More particularly, cardiomyocytes were isolated from new-born Sprague-Dawley rats hearts and maintained in 30 mm tissue culture dishes in the presence of DMEM supplemented with 1% foetal calf serum at 37° C. in a humidified 5% CO2 atmosphere. For experiments, cultures were treated with 1 μM lisinopril or with an equivalent amount of vehicle for various lengths of time, before analysis of ΔΨm.
# To measure ΔΨm, the mitochondrial-specific probes rhodamine 123 (Rh123) and 5,5′,6,6′-tetrachloro-1,1′,3,3′-tetraethylbenzimidazolocarbocyanine iodide (JC-1) were used. Cells were incubated for 15 min with 2.5 μM Rh123 or for 10 min with […] JC-1 (Molecular Probes) in fresh culture medium, at 37° C. and 5% CO2. […] Data were acquired and analysed using Lysis II software (Becton Dickinson).
# JC-1 is a more reliable and sensitive fluorescent probe for assessing changes in ΔΨm. At low concentrations, JC-1 exists mainly in a monomeric form which is characterised by the emission of green fluorescence. […] These aggregates are characterized by the emission of red fluorescence. Thus, an increase in the red to green fluorescence ratio indicates an increase in ΔΨm. […] Thus, the ratio of red to green fluorescence (□) increased as the time of incubation with lisinopril progressed.
# [10] = Re-analysis of SOLVD treatment trial: cardiac cachexia and survival; type: in vivo, human
# From the text: The SOLVD treatment study (57) was a randomized, double-blind, and placebo-controlled trial investigating the effects of enaiapril treatment in clinically stable patients with a LVEF of 35% or less and evidence of overt congestive heart failure. The precis e details of study organisation, inclusion criteria, run-in period (2 to 7 days) and stabilization period (14 to 17 days), randomisation, treatment titration and follow-up have been reported previously (57). Based also on data not otherwise available, the results have been re-analysed, restricted to subjects who participated in the SOLVD treatment trial, who had been free of edema at baseline, who had survived for at least 4 months thereafter, who had weight measurements at baseline and from at least one follow-up visit at 4 months or later.
# Of the 2082 patients, 1055 patients were randomised to treatment with enalapril (2.5 to 20 mg per pay) and 1027 patients to treatment with placebo. Body weight at baseline and during follow-up were measured per protocol. Body height was not recorded.
# Comparison of means between groups was carried out using an unpaired t-test. Comparison of proportions between groups was made by employing the chi-square test. […] To address the question of whether or not ACE inhibitors influence the risk of first occunence of cachexia, the cumulative incidence of cachexia in the two treatment groups was plotted, and analysed employing the log-rank statistic (59). In the analysis of first occunence of cardiac cachexia, at any given follow-up visit, absence of information on cardiac cachexia (i.e. weight not documented at this visit) is treated as censored. The effect of cardiac cachexia on survival is assessed using Cox proportional hazard analysis (58). For these analyses, cardiac cachexia is treated as a time-dependent covariate. The assessment of cardiac cachexia at 4, 8, and 12 months was used in the analysis. These are the time points in the follow-up period with relatively high proportion of complete information on cachexia status.
# The primary analysis was intention-to-treat. Statistical significance is claimed at a computed p-value <0.05 (two-sided testing). Estimates of effects are provided along with their 95% confidence intervals. Results are adjusted for a priori identified prognostic factors such as age, gender, NYHA functional class, LVEF (up to or more than 25%), and treatment status (enalapril vs placebo, in the case of assessing the effect of cardiac cachexia on survival).
# [11] = 50 mg once daily, both patients
compound,measurement,setting,value
"angiotensin II (DRVYIHPF; Angiotensin-2; UniProt P01019 25-32, looked up) [ATII]",O2 usage and twitch tension,[1],increases
CCCCc1nc(Cl)c(CO)n1Cc1ccc(-c2ccccc2-c2nn[nH]n2)cc1 [Losartan],gain in VO2 max at anaerobic threshold,[2]; DD genotype,-1.8 ± 6.3 mL/min
same,gain in VO2 max at anaerobic threshold,[2]; II genotype,0.3 ± 6.3 mL/min
same,"exercise capacity (exercise time, peak VO2)",[3]; [11],improved
same,side-effects of treatment,[3]; [11],No side-effects of treatment were observed
same,quadriceps muscle strength,"[3]; 50 mg once daily, both patients, both legs",improved
same,improvement in NYHA symptom class,"[3]; 50 mg once daily, both patients, follow-up 126 and 83 days",1 NYHA symptom class
same,weight gain,"[3]; patient 1, 50 mg once daily, 126 days, lean and fat tissue gain",4.6 kg
same,weight course,"[3]; patient 2, 50 mg once daily, 83 days",stopping the process of weight loss
same,insulin sensitivity,[4],improves insulin sensitivity
CCOC(=O)[C@H](CCc1ccccc1)N[C@@H](C)C(=O)N1[C@H](C(=O)O)C[C@@H]2CCC[C@@H]21 [ramipril],effect on systolic blood pressure,[5],no effect on systolic blood pressure
same,effect on systemic blood pressure,[6],without any recordable effect on systemic blood pressure
same,frequency of first-dose fall in blood pressure,[7],same frequency as is seen with placebo
C[C@H](CS)C(=O)N1CCC[C@H]1C(=O)O [captopril],increase in liver renin gene expression,renin gene expression,3 fold
NCCCC[C@H](N[C@@H](CCc1ccccc1)C(=O)O)C(=O)N1CCC[C@H]1C(=O)O [lisinopril],increase in Rh123 fluorescence,rat cardiomyocytes [8],about 30%
same,green fluorescence (JC-1 monomer),rat cardiomyocytes [9]; various lengths of time,corresponding decrease
same,red fluorescence (JC-1 aggregates),rat cardiomyocytes [9]; various lengths of time,progressive increase
same,ratio of red to green fluorescence,rat cardiomyocytes [9]; with time of incubation,increased
CCOC(=O)[C@H](CCc1ccccc1)N[C@@H](C)C(=O)N1CCC[C@H]1C(=O)O [enalapril],"risk of developing cardiac cachexia, RR (crude effect of treatment allocation)","[10]; 2.5 to 20 mg per day vs placebo, CHF patients",0.81
same,patients with weight loss of at least 7.5% with subsequently recorded weights equal to or higher than baseline,[10]; enalapril group,6 patients
same,effect on survival,"[10]; independent of age, gender, NYHA class, LVEF, p<0.01",significantly beneficial effect on survival; also recorded: reduced the frequency of the risk of death
same,reduction of the risk of developing cardiac cachexia,[10]; overall,19%
